In patent publication US20170001990A1 (Genentech, Inc., priority 2014, published 2017):
Values joined by “and” are separate entries in the source; they are usually repeats but may differ in a detail not shown here. Equal values may be shown once.

Target: Human recombinant carboxy-terminal his-tagged LDHA (amino acids 2-332) (Homo sapiens, UniProt P00338)
Assay: LDHA enzyme inhibition assay (NADH fluorescence)
Conditions: LDHA IC50 (μM), 1 nM LDHA, NADH and pyruvate, stereochemistry of tested sample given

Row | IC50 | SMILES
1 | 0.016 µM | O=C1CC(c2ccc(N3CCOCC3)cc2)(c2cccc(OC3CCCCC3)n2)NC(=O)C1Sc1ccccc1Cl (stereo not drawn) [Example 41, 3-((2-chlorophenyl)thio)-6-(6-(cyclohexyloxy)pyridin-2-yl)-6-(4-morpholinophenyl)piperidine-2,4-dione]
2 | 0.739 µM | COc1cc(F)ccc1Oc1cccc(C2(c3ccsc3)CC(=O)C(Sc3ccccc3Cl)C(=O)N2)n1 (stereo not drawn) [Example 334, 3-(2-chlorophenyl)sulfanyl-6-[6-(4-fluoro-2-methoxy-phenoxy)-2-pyridyl]-6-(3-thienyl)piperidine-2,4-dione]
3 | 0.125 µM | O=C1CC(c2ccsc2)(c2cccc(N3CCCc4cccc(O)c43)n2)NC(=O)C1Sc1ccccc1Cl (stereo not drawn) [Example 105, 3-(2-chlorophenyl)sulfanyl-6-[6-(8-hydroxy-3,4-dihydro-2H-quinolin-1-yl)-2-pyridyl]-9-(3-thienyl)piperidine-2,4-dione]
4 | 0.003 µM and 0.012 µM | O=C1CC(c2ccc(N3CCOCC3)cc2)(c2cccc(Nc3ccc(F)cc3)n2)NC(=O)C1Sc1ccccc1Cl (stereo not drawn) [Example 39, 3-((2-chlorophenyl)thio)-6-(6-((4-fluorophenyl)amino)pyridin-2-yl)-6-(4-morpholinophenyl)piperidine-2,4-dione]
5 | 0.086 µM | CCN(c1ccc(F)cc1)c1cccc(C2(c3ccsc3)CC(=O)C(Sc3ccccc3Cl)C(=O)N2)n1 (stereo not drawn) [Example 263, 3-((2-chlorophenyl)thio)-6-(6-(ethyl(4-fluorophenyl)amino)pyridin-2-yl)-6-(thiophen-3-yl)piperidine-2,4-dione]
6 | 0.102 µM | COc1cc(-c2cccc(C3(c4ccsc4)CC(=O)C(Sc4ccccc4Cl)C(=O)N3)n2)ccc1F (stereo not drawn) [Example 255, 3-((2-chlorophenyl)thio)-6-(6-(4-fluoro-3-methoxy-phenyl)pyridin-2-yl)-6-(thiophen-3-yl)piperidine-2,4-dione]
7 | 0.003 µM | O=C1CC(c2ccsc2)(c2cccc(N3CC(C4CCOCC4)C3)n2)NC(=O)C1Sc1ccccc1Cl (stereo not drawn) [Example 240, 3-(2-chlorophenyl)sulfanyl-6-[6-(3-tetrahydropyran-4-ylazetidin-1-yl)-2-pyridyl]-6-(3-thienyl) piperidine-2,4-dione]
8 | 0.131 µM | O=C1CC(c2ccc(N3CCC(F)CC3)cc2)(c2ccsc2)NC(=O)C1Sc1ccccc1Cl (stereo not drawn) [Example 107, 3-(2-chlorophenyl)sulfanyl-6-[4-(4-fluoro-1-piperidyl)phenyl]-6-(3-thienyl)piperidine-2,4-dione]
9 | 0.009 µM | O=C1CC(c2cccc(Oc3ccc(F)cc3)n2)(c2ccccc2O)NC(=O)C1Sc1ccccc1Cl (stereo not drawn) [Example 338, 5-(2-chlorophenyl)sulfanyl-2-[6-(4-fluorophenoxy)-2-pyridyl]-4-hydroxy-2-(2-hydroxyphenyl)-1,3-dihydropyridin-6-one]
10 | 0.099 µM | Cn1ccc(Nc2cccc(C3(c4ccsc4)CC(=O)C(Sc4ccccc4Cl)C(=O)N3)n2)n1 (stereo not drawn) [Example 270, 3-((2-chlorophenyl)thio)-6-(6-((1-methyl-1H-pyrazol-3-yl)amino)pyridin-2-yl)-6-(thiophen-3-yl)piperidine-2,4-dione]

More lines, now with the values behind:

Row | SMILES | IC50
11 | O=C1CC(c2ccc(OCCCO)cc2)(c2ccsc2)NC(=O)C1Sc1ccccc1Cl (stereo not drawn) [Example 28, 3-(2-chlorophenyl)sulfanyl-6-[4-(3-hydroxypropoxy)phenyl]-6-(3-thienyl)piperidine-2,4-dione] | 0.031 µM
12 | O=C1CC(c2ccsc2)(c2cccc(OCCC3CC3(F)F)n2)NC(=O)C1Sc1ccccc1Cl (stereo not drawn) [Example 20, 3-(2-chlorophenyl)sulfanyl-6-[6-[2-(2,2-difluorocyclopropyl)ethoxy]-2-pyridyl]-6-(3-thienyl)piperidine-2,4-dione] | 0.039 µM
13 | CN1C(=O)C(Sc2ccccc2Cl)C(=O)CC1(c1ccsc1)c1ccccc1F (stereo not drawn) [Example 13, 3-(2-chlorophenyl)sulfanyl-6-(2-fluorophenyl)-1-methyl-6-(3-thienyl)piperidine-2,4-dione] | 0.058 µM
14 | O=C1CC(c2ccsc2)(c2cccc(Oc3ccc4c(c3)CCC4)n2)NC(=O)C1Sc1ccccc1Cl (stereo not drawn) [Example 60, 5-((2-chlorophenyl)thio)-6′-((2,3-dihydro-1H-inden-5-yl)oxy)-4-hydroxy-2-(thiophen-3-yl)-2,3-dihydro-[2,2′-bipyridin]-6(1H)-one] | 0.009 µM
15 | O=C1CC(c2ccsc2)(c2cccc(Oc3cccc(C(F)(F)F)c3)n2)NC(=O)C1Sc1ccccc1Cl (stereo not drawn) [Example 140, 3-(2-chlorophenyl)sulfanyl-6-(3-thienyl)-6-[6-[3-(trifluoromethyl)phenoxy]-2-pyridyl]piperidine-2,4-dione] | 0.012 µM
16 | O=C1CC(c2ccsc2)(c2cccc(Oc3ccccn3)n2)NC(=O)C1Sc1ccccc1Cl (stereo not drawn) [Example 46, 3-(2-chlorophenyl) sulfanyl-6-[6-(2-pyridyloxy)-2-pyridyl]-6-(3-thienyl)piperidine-2,4-dione] | 0.005 µM
17 | CC(Oc1cccc(C2(c3ccsc3)CC(=O)C(Sc3ccccc3Cl)C(=O)N2)n1)C1CC1 (single isomer, unassigned) [Example 214, 3-(2-chlorophenyl)sulfanyl-6-[6-(1-cyclopropyl-ethoxy)-2-pyridyl]-6-(3-thienyl)piperidine-2,4-dione] | 0.017 µM
18 | COC(C)(C)CCOc1cccc(C2(c3ccsc3)CC(=O)C(Sc3ccccc3Cl)C(=O)N2)n1 (stereo not drawn) [Example 249, 3-(2-chlorophenyl)sulfanyl-6-[6-(3-methoxy-3-methyl-butoxy)-2-pyridyl]-6-(3-thienyl)piperidine-2,4-dione] | 0.099 µM
19 | CC(Oc1cccc(C2(c3ccsc3)CC(=O)C(Sc3ccccc3Cl)C(=O)N2)n1)C1CC1 (single isomer, unassigned) [Example 207, 3-(2-chlorophenyl)sulfanyl-6-[6-(1-cyclopropylethoxy)-2-pyridyl]-6-(3-thienyl) piperidine-2,4-dione] | 0.02 µM
20 | CC(C)(C)OCCOc1cccc(C2(c3ccsc3)CC(=O)C(Sc3ccccc3Cl)C(=O)N2)n1 (stereo not drawn) [Example 230, 6-[6-(2-tert-butoxyethoxy)-2-pyridyl]-3-(2-chloro-phenyl)sulfanyl-6-(3-thienyl)piperidine-2,4-dione] | 0.022 µM
21 | CN(c1cccc(CO)c1)c1cccc(C2(c3ccsc3)CC(=O)C(Sc3ccccc3Cl)C(=O)N2)n1 (stereo not drawn) [Example 310, 3-((2-chlorophenyl)thio)-6-(6-((3-(hydroxymethyl)phenyl)(methyl)amino)pyridin-2-yl)-6-(thiophen-3-yl)piperidine-2,4-dione] | 0.365 µM
22 | O=C1CCC(COc2cccc(C3(c4ccsc4)CC(=O)C(Sc4ccccc4Cl)C(=O)N3)n2)O1 (single isomer, unassigned) [Example 212, 3-(2-chlorophenyl)sulfanyl-6-[6-[(5-oxotetrahydrofuran-2-yl)methoxy]-2-pyridyl]-6-(3-thienyl)piperidine-2,4-dione] | 0.03 µM
23 | O=C1CC(c2ccsc2)(c2cccc(OCC3CCCC3)n2)NC(=O)C1Sc1ccccc1Cl (single isomer, unassigned) [Example 243, 3-(2-chlorophenyl)sulfanyl-6-[6-(cyclopentylmethoxy)-2-pyridyl]-6-(3-thienyl) piperidine-2,4-dione] | 0.001 µM
24 | O=C1CC(c2ccsc2)(c2cccc(Cc3cc(F)cc(F)c3)n2)NC(=O)C1Sc1ccccc1Cl (single isomer, unassigned) [Example 146, 3-(2-chlorophenyl)sulfanly-6-[6-[(3,5-difluorophenyl)methyl]-2-pyridyl]-6-(3-thienyl)piperidine-2,4-dione] | 0.189 µM
